From patent US9409952B2, “Peptide-compound cyclization method” (Chugai Seiyaku Kabushiki Kaisha, priority 2011, dated 2016)
Like-named read-outs stand apart in the source and are kept apart here. Starred links: 1 amine or outer side, 2 acyl side, 3 side chain; linkers in the order of their positions; H or OH if unused. Positions of bridges follow the written chain, without caps; N, C: chain ends. Non-standard residues stand in square brackets, D forms with d. Residues, ends and D or L forms follow the SMILES beside them. *: point of attachment. Ala(1H-tetrazol-5-yl) = N[C@@H](Cc1nnn[nH]1)C(=O)O; X2 = O=C(C[C@H](N[*:1])C(F)(F)F)[*:2]; NMeF = CN[C@@H](Cc1ccccc1)C(=O)O; NMeI = CC[C@H](C)[C@H](NC)C(=O)O; NMeβAla = CN(CCC(=O)[*:2])[*:1]; NMeL = CN[C@@H](CC(C)C)C(=O)O; NMeV = CN[C@H](C(=O)O)C(C)C; NMeS = CN[C@@H](CO)C(=O)O; NMeA = CN[C@@H](C)C(=O)O; Piperidide = C1CCN(*)CC1; dNMeA = CN[C@H](C)C(=O)O; Abu = CC[C@H](N)C(=O)O; Sar = CNCC(=O)O; tBu = CC(C)(C)*

Experiment: PAMPA (parallel artificial membrane permeability assay)
Format: in vitro ADME
Conditions: PAMPA
How it was run: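 Artificial membrane was 10% (w/v) egg lecithin plus 0.5% (w/v) cholesterol in dodecane on a PVDF filter. A 10 mM DMSO stock was added at 0.5% (v/v) to donor buffer (50 mM MOPSO, pH 6.5, 5.0% glycocholic acid). After 18 h at 37 °C, LC/MS or LC/UV gave donor and acceptor levels for Pe.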

[1] = membrane permeation rate (Pe), 50 mM MOPSO buffer pH 6.5 with 5.0% glycocholic acid, 37° C., 18 hours, read-out: iPAMPA Pe

Row | Structure (SMILES) | Papp at 18 hours, 50 µM [1] [×10⁻⁶ cm/s] | also measured
1 | CC(C)C[C@@H]1NC(=O)[C@H](Cc2ccccc2)N(C)C(=O)[C@@H](C(C)C)NC(=O)C[C@@H](C(=O)N2CCCCC2)NC(=O)[C@H](C(C)C)N(C)C(=O)[C@H](Cc2ccccc2)N(C)C(=O)[C@H](COC(C)(C)C)NC(=O)[C@H](CC(C)C)N(C)C(=O)CN(C)C(=O)[C@H]([C@@H](C)O)NC(=O)[C@H](CC(C)C)N(C)C1=O [DP-149] ([dV][NMeF]L[NMeL]T[Sar][NMeL]S(tBu)[NMeF][NMeV]D-Piperidide; lactam N-11) |  | Papp at 18 hours, 50 µM (pH 6.5): 17 ×10⁻⁶ cm/s
2 | CC[C@H](C)[C@@H]1NC(=O)[C@H](CC(C)C)N(C)C(=O)[C@H](CC(C)C)N(C)C(=O)[C@H](C)N(C)C(=O)[C@H]([C@@H](C)O)NC(=O)[C@H](Cc2ccccc2)N(C)C(=O)[C@@H](C)N(C)C(=O)C[C@@H](C(=O)N(C)[C@@H](Cc2ccccc2)C(=O)N(C)[C@@H](Cc2ccccc2)C(=O)N[C@@H](C)C(=O)N2CCCCC2)NC(=O)[C@H](C(C)C)N(C)C1=O [DP-399] ([dNMeA][NMeF]T[NMeA][NMeL][NMeL]I[NMeV]D[NMeF][NMeF]A-Piperidide; lactam N-9) | 0.89 | 
3 | CC[C@H](C)[C@@H]1NC(=O)[C@H](C)NC(=O)C[C@@H](C(=O)N(C)[C@@H](Cc2ccccc2)C(=O)N[C@@H](C)C(=O)N2CCCCC2)NC(=O)[C@H](Cc2ccccc2)N(C)C(=O)[C@H](CC(C)C)N(C)C(=O)[C@H](C)N(C)C(=O)[C@H]([C@@H](C)O)NC(=O)[C@H](Cc2ccccc2)N(C)C(=O)[C@H](CC(C)C)N(C)C(=O)[C@H](C)N(C)C(=O)[C@H](CC(C)C)N(C)C1=O [DP-178] (AI[NMeL][NMeA][NMeL][NMeF]T[NMeA][NMeL][NMeF]D[NMeF]A-Piperidide; lactam N-11) | 1 | 
4 | CC[C@H](C)[C@@H]1NC(=O)[C@H](CC(C)C)N(C)C(=O)[C@H](Cc2ccccc2)N(C)C(=O)[C@H]([C@@H](C)O)NC(=O)[C@H](CC(C)C)N(C)C(=O)[C@H](CC(C)C)N(C)C(=O)[C@H](C)N(C)C(=O)C[C@@H](C(=O)N2CCCCC2)NC(=O)[C@H](CC(C)C)NC(=O)[C@H](Cc2ccccc2)N(C)C(=O)[C@H](C)N(C)C1=O [DP-154] ([NMeA][NMeL][NMeL]T[NMeF][NMeL]I[NMeA][NMeF]LD-Piperidide; lactam N-11) |  | Papp at 18 hours, 50 µM (pH 6.5): 9.3 ×10⁻⁶ cm/s
5 | CC[C@H](C)[C@H]1C(=O)N[C@@H]([C@@H](C)O)C(=O)N[C@@H](Cc2ccccc2)C(=O)N2CCC[C@H]2C(=O)NCC(=O)N(C)[C@@H](CC(C)C)C(=O)N[C@H](C(=O)N(C)[C@@H](Cc2ccccc2)C(=O)N[C@@H](C)C(=O)N2CCCCC2)CC(=O)N[C@H](C(C)C)C(=O)N[C@@H](Cc2ccccc2)C(=O)N(C)[C@@H](CC(C)C)C(=O)N[C@@H](CC(C)C)C(=O)N1C [DP-278] ([dV]F[NMeL]L[NMeI]TFPG[NMeL]D[NMeF]A-Piperidide; lactam N-11) |  | Papp at 18 hours, 50 µM (pH 6.5): 1.5 ×10⁻⁶ cm/s
6 | NS(=O)(=O)c1cc2c(cc1Cl)NCNS2(=O)=O [hydrochlorothiazide, reference compound] |  | Papp at 18 h, 50 µM: 0.6 ×10⁻⁶ cm/s
7 | CC[C@H](C)[C@H](NC(=O)[C@H](C)N(C)C(=O)[C@@H]1CC(=O)N(C)[C@H](C)C(=O)N(C)[C@@H](C)C(=O)N(C)[C@@H](Cc2ccccc2)C(=O)N(C)[C@@H](CC(C)C)C(=O)N[C@@H]([C@@H](C)O)C(=O)N(C)[C@@H](C)C(=O)N(C)[C@@H](CC(C)C)C(=O)N[C@@H](CO)C(=O)N1)C(=O)N1CCC[C@H]1C(=O)N[C@H](C(=O)N[C@@H](C)C(=O)N1CCCCC1)C(C)C [DP-578] ([dNMeA][NMeA][NMeF][NMeL]T[NMeA][NMeL]SD[NMeA]IPVA-Piperidide; lactam N-9) | 3.4 | 
8 | CC(C)[C@@H]1NC(=O)[C@H](Cc2ccccc2)N(C)C(=O)[C@H](C)N(C)C(=O)[C@H]([C@@H](C)O)NC(=O)CNC(=O)[C@H](C)N(C)C(=O)[C@H](Cc2ccccc2)NC(=O)[C@H](C)N(C)C(=O)C[C@@H](C(=O)N(C)[C@@H](Cc2ccccc2)C(=O)N(C)[C@@H](Cc2ccccc2)C(=O)N[C@@H](C)C(=O)N2CCCCC2)NC(=O)[C@H](C(C)C)N(C)C1=O [DP-393] ([NMeA]F[NMeA]GT[NMeA][NMeF]V[NMeV]D[NMeF][NMeF]A-Piperidide; lactam N-10) | 18 | 
9 | CC[C@H](C)[C@@H]1NC(=O)[C@H](Cc2ccccc2)N(C)C(=O)[C@H](CC(C)C)N(C)C(=O)[C@H](Cc2ccccc2)NC(=O)[C@H]([C@@H](C)O)NC(=O)[C@H](CC(C)C)N(C)C(=O)[C@H](CC(C)C)NC(=O)CCN(C)C(=O)C[C@@H](C(=O)N2CCCCC2)NC(=O)[C@H](CC(C)C)N(C)C1=O [DP-336] ([NMeβAla]L[NMeL]TF[NMeL][NMeF]I[NMeL]D-Piperidide; lactam N-10) | 35 | 
10 | CC[C@H](C)[C@@H]1NC(=O)[C@H](CC(C)C)N(C)C(=O)[C@H](C(C)C)N(C)C(=O)[C@H](Cc2ccccc2)N(C)C(=O)[C@H](CC(C)C)NC(=O)[C@H](C)N(C)C(=O)[C@H](C)N(C)C(=O)[C@H]([C@@H](C)O)NC(=O)[C@H](Cc2ccccc2)N(C)C(=O)CN(C)C(=O)C[C@@H](C(=O)N(C)[C@@H](Cc2ccccc2)C(=O)N[C@@H](C)C(=O)N2CCCCC2)NC1=O [DP-186] ([Sar][NMeF]T[NMeA][NMeA]L[NMeF][NMeV][NMeL]ID[NMeF]A-Piperidide; lactam N-11) | 37 | 
11 | CC(C)C[C@H]1C(=O)N[C@@H](C(C)C)C(=O)N(C)[C@@H](CC(C)C)C(=O)N[C@@H](C)C(=O)N[C@H](C)C(=O)N(C)[C@@H](CC(C)C)C(=O)N(C)[C@@H](CC(C)C)C(=O)N(C)[C@@H](CC(C)C)C(=O)N(C)[C@@H](CO)C(=O)N[C@H](C(F)(F)F)CC(=O)N(C)CC(=O)N1C [DP-654] (cyclo(A[dA][NMeL][NMeL][NMeL][NMeS][X2][Sar][NMeL]V[NMeL])) | 23 | 
12 | CC(C)C[C@H]1C(=O)N(C)[C@@H](Cc2ccccc2)C(=O)N[C@@H]([C@@H](C)O)C(=O)N[C@@H](C)C(=O)N(C)[C@@H](C)C(=O)N[C@H](C(=O)N(C)[C@@H](Cc2ccccc2)C(=O)N[C@@H](C)C(=O)N2CCCCC2)CC(=O)N(C)CCC(=O)N(C)[C@@H](Cc2ccccc2)C(=O)N(C)[C@@H](C(C)C)C(=O)N(C)[C@@H](C)C(=O)N[C@@H](C)C(=O)N1C [DP-360] ([NMeβAla][NMeF][NMeV][NMeA]A[NMeL][NMeF]TA[NMeA]D[NMeF]A-Piperidide; lactam N-11) | 7.3 | 
13 | CC[C@H](C)[C@@H]1NC(=O)[C@H](CC(C)C)N(C)C(=O)[C@H](C)N(C)C(=O)[C@H](C)N(C)C(=O)CCN(C)C(=O)C[C@@H](C(=O)N(C)[C@@H](Cc2ccccc2)C(=O)N[C@@H](C)C(=O)N2CCCCC2)NC(=O)[C@H](Cc2ccccc2)N(C)C(=O)[C@H](C)N(C)C(=O)[C@H]([C@@H](C)O)NC(=O)[C@H](Cc2ccccc2)N(C)C(=O)[C@H](C)N(C)C1=O [DP-362] ([NMeβAla][NMeA][NMeA][NMeL]I[NMeA][NMeF]T[NMeA][NMeF]D[NMeF]A-Piperidide; lactam N-11) | 27 | 
14 | CC(C)C[C@H]1C(=O)N[C@H](C(=O)N(C)[C@@H](Cc2ccccc2)C(=O)N(C)[C@@H](Cc2ccccc2)C(=O)N[C@@H](C)C(=O)N2CCCCC2)CC(=O)N[C@H](C(C)C)C(=O)N(C)[C@@H](Cc2ccccc2)C(=O)N(C)[C@@H](CC(C)C)C(=O)N[C@@H]([C@@H](C)O)C(=O)N(C)[C@@H](C)C(=O)N(C)[C@@H](CC(C)C)C(=O)N[C@@H](C(C)C)C(=O)N1C [DP-210] ([dV][NMeF][NMeL]T[NMeA][NMeL]V[NMeL]D[NMeF][NMeF]A-Piperidide; lactam N-9) | 1.8 | 
15 | CC[C@@H]1NC(=O)[C@H](CO)N(C)C(=O)[C@H](CC(C)C)N(C)C(=O)[C@H](CC(C)C)N(C)C(=O)[C@H](CC(C)C)N(C)C(=O)[C@@H](C)NC(=O)[C@H](CC(C)C)NC(=O)C[C@@H](C(F)(F)F)NC(=O)[C@H](C(C)C)NC(=O)[C@H](CC(C)C)N(C)C(=O)CN(C)C1=O [DP-656] (cyclo([Abu][Sar][NMeL]V[X2]L[dA][NMeL][NMeL][NMeL][NMeS])) | 30 | 
16 | CC(C)C[C@H]1C(=O)N(C)[C@@H](Cc2ccccc2)C(=O)N(C)[C@@H](CC(C)C)C(=O)N[C@H](C(=O)N(C)[C@@H](Cc2ccccc2)C(=O)N[C@@H](Cc2ccccc2)C(=O)N2CCCCC2)CC(=O)N[C@H](C(C)C)C(=O)N[C@@H](C)C(=O)N[C@@H]([C@@H](C)O)C(=O)N(C)[C@@H](C)C(=O)N[C@@H](Cc2ccccc2)C(=O)N1C [DP-577] ([dV]AT[NMeA]F[NMeL][NMeF][NMeL]D[NMeF]F-Piperidide; lactam N-9) | 0.94 | 
17 | CC[C@H](C)[C@@H]1NC(=O)[C@H](Cc2ccccc2)N(C)C(=O)[C@H]([C@@H](C)O)NC(=O)[C@@H](C)NC(=O)C[C@@H](C(=O)N(C)[C@@H](Cc2ccccc2)C(=O)N(C)[C@@H](Cc2ccccc2)C(=O)N[C@@H](C)C(=O)N2CCCCC2)NC(=O)[C@H](CC(C)C)N(C)C(=O)[C@H](CC(C)C)N(C)C(=O)[C@H](Cc2ccccc2)N(C)C(=O)[C@H](CC(C)C)N(C)C(=O)[C@H](C)N(C)C1=O [DP-289] ([dA]T[NMeF]I[NMeA][NMeL][NMeF][NMeL][NMeL]D[NMeF][NMeF]A-Piperidide; lactam N-10) |  | Papp at 18 hours, 50 µM (pH 6.5): 0.14 ×10⁻⁶ cm/s
18 | CC(C)C[C@@H]1NC(=O)[C@H](Cc2ccccc2)N(C)C(=O)[C@H](Cc2ccccc2)N(C)C(=O)[C@H](C(C)C)NC(=O)[C@H](CC(C)C)N(C)C(=O)[C@H](Cc2nn[nH]n2)NC(=O)[C@H](CC(C)C)N(C)C(=O)C[C@@H](C(=O)N2CCCCC2)NC(=O)[C@H](CC(C)C)N(C)C1=O [DP-907] ([NMeL][Ala(1H-tetrazol-5-yl)][NMeL]V[NMeF][NMeF]L[NMeL]D-Piperidide; lactam N-9) | 21 | 
19 | CC(C)C[C@@H]1NC(=O)[C@H](Cc2ccccc2)N(C)C(=O)[C@H](C)NC(=O)[C@H](C)N(C)C(=O)[C@H]([C@@H](C)O)NC(=O)[C@H](CC(C)C)N(C)C(=O)[C@H](C)N(C)C(=O)C[C@@H](C(=O)N2CCCCC2)NC(=O)[C@H](CC(C)C)N(C)C(=O)[C@H](Cc2ccccc2)N(C)C(=O)[C@H](CC(C)C)N(C)C1=O [DP-156] ([NMeA][NMeL]T[NMeA]A[NMeF]L[NMeL][NMeF][NMeL]D-Piperidide; lactam N-11) | 24 | 
